These results are taken from patent US11666598B2 (priority 2019, dated 2023).

Test [1] deals with Escherichia coli (BL21). The test is described as follows: In vitro E. coli bacterial growth assessment (optical density 600 nm). The class given is cell-based. Particulars: soluble; rich media (LB broth). As to the method: Escherichia coli (BL21) was expanded overnight in LB broth, then seeded (1:100) in fresh medium according to growth conditions. Experiments were carried out in modified M9 minimal medium supplemented with appropriate carbon source (Acetate: 1%, Glucose 0.4%) or LB broth (Lennox). Time course assessment of soluble small molecule inhibition was conducted in 96-well culture plates fitted with a breathable film to encourage aeration and cultured for indicated time with incremental optical density measurement (600 nm). Growth media containing solubilized acid was neutralized with sodium hydroxide (pH=7.0).
To determine polymer antimicrobial properties in solution, six well plates were cast with equal mass polymer samples and polymer free culture plate (polystyrene) controls. […] Silver nanoparticles (10 nm) and PLLA (Mn=85-110 kDa, Sigma) were used as positive and negative controls respectively. Soluble assessment of DMI was conducted using the method described for polymer samples using a 12 well plate format (1.5 mL/well).

Test [2] relates to murine bone marrow derived macrophages (BMDM). The test is described as follows: Cytokine quantification in stimulated bone marrow derived macrophages. It counts as cell-based, C57BL/6 mice. As to conditions: 12 hr pretreatment, then LPS or LPS+IFNγ 12 hr; vs PLGA and insert free controls. As to the method:
For experiments, cells were seeded at 90 000 cells cm^−2 in 6 well culture plates. […] Unstimulated cells treated with identical groups were used as a negative control.
Cytokine quantification was conducted on cell supernatants using a mouse 10-plex pro-inflammatory assay or an interferon beta single plex assay (Eve Technologies, Calgary, AB) and calculated using their standard curve. Nitrite content was determined using a Greiss Reagent Kit.

Test [3] relates to isocitrate lyase (ICL). As to conditions: under glucose deprived conditions; cited from earlier work.

As for `C=C(CC(=O)OC)C(=O)OC` [DMI, dimethyl itaconate], the “concentration showing sensitivity on rich media” value in test [1] is above 7.5 mM. For the same compound, the IL-6 result in test [2] is on record as “marked”.

`C=C(CC(=O)O)C(=O)O` [ITA, itaconic acid]: the “inhibition of isocitrate lyase (ICL)” value in test [3] is “potent inhibitor”.
